Results: patent US20110173718A1, “HERBICIDE TOLERANT PLANTS” (SYNGENTA CROP PROTECTION, INC., priority 2008, published 2011)
Like-named read-outs stand apart in the source and are kept apart here. Marks after values point to notes of the source that are not given here.

Experiments:
[1] = biological target: T1, Chlamydomonas HST (Chlamydomonas reinhardtii, UniProt A1JHN0); assay: HST assay (TLC, MFBQ formed), recombinant Chlamydomonas HST in E. coli membranes; assay type: biochemical; settings: for inhibition at 25 ppm: read-out: Chlamydomonas. HST % I at 25 ppm
T1 construct: GST (N); made in house; host or cells: E. coli (BL21A1 / BL21DE3), membrane fraction
T1 sequence (A1JHN0 51-370): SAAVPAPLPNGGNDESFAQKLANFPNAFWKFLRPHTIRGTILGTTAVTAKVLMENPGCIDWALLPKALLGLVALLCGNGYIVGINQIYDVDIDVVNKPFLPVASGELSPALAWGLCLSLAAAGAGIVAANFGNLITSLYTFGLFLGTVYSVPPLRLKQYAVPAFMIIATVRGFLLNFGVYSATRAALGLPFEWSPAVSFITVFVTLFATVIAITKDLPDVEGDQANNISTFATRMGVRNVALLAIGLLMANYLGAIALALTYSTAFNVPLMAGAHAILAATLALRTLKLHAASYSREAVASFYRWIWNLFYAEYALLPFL
Outline: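 Recombinant GST-fused Chlamydomonas HST in E. coli membranes was incubated with 200 μM farnesyl diphosphate and 100 μM 14C-homogentisate in 50 mM Tricine-NaOH pH 8.5, 20 mM MgCl2 for ~20 min at 28 °C, with compounds in DMSO. Oxidised plus reduced MFBQ was quantified by TLC phosphorimaging. Results are percent inhibition versus no-inhibitor control across doses.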

[2] = biological target: T2, Arabidopsis HST (Arabidopsis thaliana, UniProt Q1ACB3); assay: HST total extraction (non TLC) assay, recombinant Arabidopsis HST from insect cells; assay type: biochemical
T2 construct: GST (factor Xa cleavage site) (N); made in house; host or cells: Sf9 insect cells (baculovirus, pAcG3X), membrane fraction
T2 sequence (Q1ACB3 70-386): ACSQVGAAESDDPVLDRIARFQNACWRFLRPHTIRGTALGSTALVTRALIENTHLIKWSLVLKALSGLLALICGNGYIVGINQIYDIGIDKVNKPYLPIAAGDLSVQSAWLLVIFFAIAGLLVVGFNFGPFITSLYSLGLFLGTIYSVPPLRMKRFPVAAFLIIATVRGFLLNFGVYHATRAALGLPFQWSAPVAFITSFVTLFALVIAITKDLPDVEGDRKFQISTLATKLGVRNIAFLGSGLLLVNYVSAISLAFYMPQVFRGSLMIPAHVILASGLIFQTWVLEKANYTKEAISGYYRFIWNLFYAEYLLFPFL

[3] = TLC, estimated amount of MFBQ formed, relative to controls
[4] = 25 ppm, TLC, estimated amount of MFBQ formed, relative to controls
[5] = 3 point dose curves only conducted at 50 μM HPP

`Oc1c(Cl)c(F)nc(F)c1Cl` [Compound 1.1, haloxydine] was tested, and the “Chlamydomonas. HST % I at 10 ppm” value [1, 3] was 70%, the inhibition at 25 ppm [1, 4] was 80% and the “Chlamydomonas. HST % I at 100 ppm” value [1, 3] was 95%. For the same molecule, the “inhibition of the HST enzyme reaction (MFBQ and other products)” value ([1]; 500 ppm, stated for the HST enzyme preparations assayed) was “completely inhibits”.
In the case of `O=c1c(-c2c(F)ccc(F)c2Cl)c(O)c2nccnc2n1CC(F)F` [Compound 2.3], the “Estimated IC50 (ppm)” value [2, 5] is reported as 19* ppm, the “Chlamydomonas. HST % I at 10 ppm” value [1, 3] is reported as 40% and the “Chlamydomonas. HST % I at 100 ppm” value [1, 3] is reported as 85%.
In the case of `O=c1c(-c2c(F)ccc(Br)c2Cl)c(O)c2nccnc2n1CC(F)F` [Compound 2.8], the “Estimated IC50 (ppm)” value [2] is reported as 12 ppm and the inhibition at 25 ppm [1, 4] is reported as 85%.
In the case of `O=c1c(-c2cc(C(F)(F)F)ccc2Cl)c(O)c2nccnc2n1CC(F)F` [Compound 2.9], the “Estimated IC50 (ppm)” value [2] is reported as 6 ppm and the inhibition at 25 ppm [1, 4] is reported as 90%.
`O=c1c(-c2c(F)ccc(F)c2Cl)c(O)c2cccnc2n1CC(F)F` [Compound 2.13] was tested, and the “Estimated IC50 (ppm)” value [2, 5] was 54* ppm and the “Chlamydomonas. HST % I at 25 ppm” value [1, 4] was 60%.
With `O=c1c(-c2c(Cl)ccc(Cl)c2Cl)c(O)c2nccnc2n1CC(F)F` [Compound 2.14] the “Estimated IC50 (ppm)” value [2] was 9 ppm and the inhibition at 25 ppm [1, 4] was 85%.
For `O=c1c(-c2c(F)ccc(Br)c2Cl)c(O)c2cccnc2n1CC(F)F` [Compound 2.15], the “Estimated IC50 (ppm)” value [2] was 12 ppm.
